In patent US20120087864A1, “METHOD FOR DIAGNOSING AND/OR EVALUATING RETINAL DISEASE” (R-TECH UENO, LTD., priority 2010, published 2012):
“And” between values parts separate entries of the source, which are not always exact repeats. Identical values can stand only once. Marks after values point to notes of the source that are not given here.

What was measured:
Type in all cases: in vivo, human
[1] = system: patient with retinal pigmentosa; experiment: Distribution of MP-1 central 2 degrees retinal sensitivity change by concentration of metabolite A in plasma (LC/MS/MS); details: instillation group
Protocol: Concentration of drug in plasma (20 week after the initiation of test drug administration, the concentration of the drug in plasma after 15 minutes had passed since instillation of the second drop). Evaluate items: The concentration of isopropyl unoprostone and its metabolite A (free carboxylic acid of isopropyl unoprostone in plasma was measured.)
Twenty weeks after the initiation of the test drug administration in Test Example 1, the concentration of the drug in plasma was measured after 15 minutes had passed since instillation of the second drop.
Evaluation item: concentration of metabolite A (free carboxylic acid of isopropyl unoprostone) in plasma Measuring method: Twenty weeks after initiation of test drug administration, samples were obtained by drawing 4 ml of blood per time after 15 minutes had passed since instillation of the second drop, and then the concentration of the metabolite A in plasma was measured by liquid chromatogram/Tandem mass spectrometer (LC/MS/MS) using a portion of the measuring samples. Measuring apparatus: liquid chromatograph/Tandem mass spectrometer (LC/MS/MS) [High-performance liquid chromatography system (SHIMADZU 20A, manufactured by Shimadzu Corporation) Analysis column: Develosil ODS-UG-3 (2.0 mm I.D.×50 mm, 3 μm, manufactured by Nomura Chemical Co., Ltd.) Column temperature: 35° C. Injection amount: 20 μL Mobile phase A: acetonitrile/10 mmol/L ammonium acetate solution/acetic acid (20:80:0.1, v/v/v) Mobile phase B: acetonitrile/acetic acid (100:0.1, v/v) Needle wash: Methanol Flow rate: 0.25 mL/minute Mass spectrometry (API 4000, manufactured by Applied Biosystems)] Ionization method: ESI method (Turbo ion spray, 350° C.) […] Internal standard substance: 17,20-dimethyl PGF1α
In order to evaluate a correlation of the change value (24 weeks) of average retinal sensitivity by MP-1 in central 2 degrees (4 points) with the concentration of metabolite A in plasma of the isopropyl unoprostone instillation group, when the change value (24 weeks) of average retinal sensitivity by MP-1 in central 2 degrees (4 points) was a positive value, it was classified as “improvement”. In contrast, when the change value was zero and a negative value, it was classified as “non-improvement”. Furthermore, each concentration of metabolite A in plasma (1 ng/mL, 2 ng/mL, 2.5 ng/mL and 3 ng/mL) was regarded as a boundary concentration, distribution of the change value (24 weeks) by MP-1 in central 2 degrees (4 points) average retinal sensitivity was confirmed.

[2] = system: patient with retinal pigmentosa; experiment: Humphrey visual field test, retinal sensitivity of central 2 degrees (4 points); details: 0.15% solution twice a day
Protocol: (§1) One drop or two drops of isopropyl unoprostone 0.15 w/v % ophthalmic solution per one time was administered to each eye of patient with retinal pigmentosa daily for 24 weeks, and the following items were examined. 112 patients participated this test.
Change in retinal sensitivity of central 2 degrees (4 points) through Humphrey visual field test
The above ophthalmic solution of Formulation Example 1 was used as the test drug.
(1) Dosage regimen: Instillation twice* a day, one drop of a first solution was instilled at the time of first instillation and, after 5 minute, one drop of a second solution was instilled into both eyes.
Between-group comparison of the change value of Humphrey central 4 points retinal sensitivity was made every measurement time point.

[3] = system: patient with retinal pigmentosa; experiment: Safety evaluation: side effects until completion of medication (24 weeks)
Source text: Safety evaluation (1. Adverse event, 2. Side effect, 3. Ophthalmologic examination, Vital signs, Clinical examination result)
A list of items of the side effect confirmed until completion of medication (24 weeks) in Test Example 1, and the number of appearance cases and the appearance ratio of the side effect of each group are shown in Table 10.

[4] = system: patient with retinal pigmentosa; experiment: NEI VFQ-25 (Compo 8) vision-related QOL questionnaire; details: 0.15% solution twice a day, after 24 weeks minus 0 week
Protocol: as §1
Change in The 25-Item National Eye Institute Visual Function Questionnaire (NEI VFQ-25) Compo 8:
Original NEI VFQ-25 (The 25-item National Eye Institute Visual Function Questionnaire) for evaluation of vision-related QOL of a patient is constituted from visual functions in various living scenes, and 12 subscales (questions of 25 items) for measurement of the degree of restrictions of vision-related physical, mental and social living scenes. In the present test, a questionnaire of Compo 8 constituted from 8 subscales with exception of general health, driving, peripheral vision and ocular pain among the subscales was used. At the time of completion of the pre-observation period (0 week) and completion of the treatment (24 weeks), a change value of score (the value after 24 weeks minus the value at 0 week) was evaluated.

[5] = metabolite A in plasma 1.0 ng/mL or more
[6] = metabolite A in plasma 2.0 ng/mL or more
[7] = metabolite A in plasma 2.5 ng/mL or more
[8] = metabolite A in plasma 3.0 ng/mL or more
[9] = metabolite A in plasma less than 1.0 ng/mL
[10] = metabolite A in plasma less than 2.0 ng/mL
[11] = metabolite A in plasma less than 2.5 ng/mL
[12] = metabolite A in plasma less than 3.0 ng/mL

For `CCCCCCCC(=O)CC[C@@H]1[C@@H](C/C=C\CCCC(=O)OC(C)C)[C@@H](O)C[C@H]1O` [isopropyl unoprostone, (+)-isopropyl (Z)-7-[(1R,2R,3R,5S)-3,5-dihydroxy-2-(3-oxodecyl)cyclopentyl]hept-5-enoate], the “number of improved cases (MP-1 central 2 degrees change value, 24 weeks, positive)” value [1, 5] was 33, the “number of non-improved cases” value [1, 5] was 18 and the “ratio of improved cases” value [1, 5] was “(64.7%)”. The “ratio of non-improved cases” value [1, 5] was “(35.3%)”, the “number of improved cases (MP-1 central 2 degrees change value, 24 weeks, positive)” value [1, 6] was 16 and the “number of non-improved cases” value [1, 6] was 8. The “ratio of improved cases” value [1, 6] was “(66.7%)”, the “ratio of non-improved cases” value [1, 6] was “(33.3%)” and the “number of improved cases (MP-1 central 2 degrees change value, 24 weeks, positive)” value [1, 7] was 12. The “number of non-improved cases” value [1, 7] was 2, the “ratio of improved cases” value [1, 7] was “(85.7%)” and the “ratio of non-improved cases” value [1, 7] was “(14.3%)”. The “number of improved cases (MP-1 central 2 degrees change value, 24 weeks, positive)” value [1, 8] was 9, the “number of non-improved cases” value [1, 8] was 1 and the “ratio of improved cases” value [1, 8] was “(90.0%)”. The “ratio of non-improved cases” value [1, 8] was “(10.0%)”, the “number of improved cases (MP-1 central 2 degrees change value, 24 weeks, positive)” value [1, 9] was 11 and the “number of non-improved cases” value [1, 9] was 11. For the same compound, the “ratio of improved cases” value [1, 9] was “(50.0%)”, the “ratio of non-improved cases” value [1, 9] was “(50.0%)” and the “number of improved cases (MP-1 central 2 degrees change value, 24 weeks, positive)” value [1, 10] was 28. For the same compound, the “number of non-improved cases” value [1, 10] was 21, the “ratio of improved cases” value [1, 10] was “(57.1%)” and the “ratio of non-improved cases” value [1, 10] was “(42.9%)”. For the same compound, the “number of improved cases (MP-1 central 2 degrees change value, 24 weeks, positive)” value [1, 11] was 32, the “number of non-improved cases” value [1, 11] was 27 and the “ratio of improved cases” value [1, 11] was “(54.2%)”. The “ratio of non-improved cases” value [1, 11] was “(45.8%)”, the “number of improved cases (MP-1 central 2 degrees change value, 24 weeks, positive)” value [1, 12] was 35 and the “number of non-improved cases” value [1, 12] was 28. For the same compound, the “ratio of improved cases” value [1, 12] was “(55.6%)”, the “ratio of non-improved cases” value [1, 12] was “(44.4%)” and the “change value of Humphrey central 4 points retinal sensitivity” value ([2]; one drop per time group, after 4 weeks) was −0.178. For the same compound, the “change value of Humphrey central 4 points retinal sensitivity” value ([2]; one drop per time group, after 8 weeks) was 0.158, the “change value of Humphrey central 4 points retinal sensitivity” value ([2]; one drop per time group, after 16 weeks) was 0.336 and the “change value of Humphrey central 4 points retinal sensitivity” value ([2]; one drop per time group, after 24 weeks) was 0.334. The “change value of Humphrey central 4 points retinal sensitivity” value ([2]; two drops per time group, after 4 weeks) was 0.714, the “change value of Humphrey central 4 points retinal sensitivity” value ([2]; two drops per time group, after 8 weeks) was 0.821 and the “change value of Humphrey central 4 points retinal sensitivity” value ([2]; two drops per time group, after 16 weeks) was 1.253*^†1. The “change value of Humphrey central 4 points retinal sensitivity” value ([2]; two drops per time group, after 24 weeks) was 2.009 and 2.009*^†1†2, the serious side effect ([3]; any group (one drop and two drops per time)) was “no serious side effect” and the “All side effects, number of appearance cases” value ([3]; one drop per time (39 cases)) was 28 (71.8%) cases (%) and 28 (71.8) cases (%). For the same compound, the “Bloodshot eyes, number of appearance cases” value ([3]; one drop per time (39 cases)) was 1 (2.6) cases (%), the “Bloodshot, number of appearance cases” value ([3]; one drop per time (39 cases)) was 0 (0.0) cases (%) and the “Dry eye, number of appearance cases” value ([3]; one drop per time (39 cases)) was 1 (2.6) cases (%). The “Eye abnormality, number of appearance cases” value ([3]; one drop per time (39 cases)) was 0 (0.0) cases (%), the “Eye irritation, number of appearance cases” value ([3]; one drop per time (39 cases)) was 9 (23.1) cases (%) and the “Eye pruritus, number of appearance cases” value ([3]; one drop per time (39 cases)) was 1 (2.6) cases (%). For the same compound, the “Eye swelling, number of appearance cases” value ([3]; one drop per time (39 cases)) was 1 (2.6) cases (%), the “Foreign body sensation, number of appearance cases” value ([3]; one drop per time (39 cases)) was 1 (2.6) cases (%) and the “Hypertrichosis, number of appearance cases” value ([3]; one drop per time (39 cases)) was 0 (0.0) cases (%). For the same compound, the “Irritation of applied site, number of appearance cases” value ([3]; one drop per time (39 cases)) was 13 (33.3) cases (%), the “Macular edema, number of appearance cases” value ([3]; one drop per time (39 cases)) was 1 (2.6) cases (%) and the “Macular hole, number of appearance cases” value ([3]; one drop per time (39 cases)) was 0 (0.0) cases (%). The “Punctate keratitis, number of appearance cases” value ([3]; one drop per time (39 cases)) was 4 (10.3) cases (%), the “All side effects, number of appearance cases” value ([3]; two drops per time (38 cases)) was 21 (55.3%) cases (%) and 21 (55.3) cases (%) and the “Bloodshot eyes, number of appearance cases” value ([3]; two drops per time (38 cases)) was 0 (0.0) cases (%). For the same compound, the “Bloodshot, number of appearance cases” value ([3]; two drops per time (38 cases)) was 1 (2.6) cases (%), the “Dry eye, number of appearance cases” value ([3]; two drops per time (38 cases)) was 0 (0.0) cases (%) and the “Eye abnormality, number of appearance cases” value ([3]; two drops per time (38 cases)) was 1 (2.6) cases (%). For the same compound, the “Eye irritation, number of appearance cases” value ([3]; two drops per time (38 cases)) was 4 (10.5) cases (%), the “Eye pruritus, number of appearance cases” value ([3]; two drops per time (38 cases)) was 1 (2.6) cases (%) and the “Eye swelling, number of appearance cases” value ([3]; two drops per time (38 cases)) was 0 (0.0) cases (%). For the same compound, the “Foreign body sensation, number of appearance cases” value ([3]; two drops per time (38 cases)) was 0 (0.0) cases (%), the “Hypertrichosis, number of appearance cases” value ([3]; two drops per time (38 cases)) was 1 (2.6) cases (%) and the “Irritation of applied site, number of appearance cases” value ([3]; two drops per time (38 cases)) was 13 (34.2) cases (%). The “Macular edema, number of appearance cases” value ([3]; two drops per time (38 cases)) was 0 (0.0) cases (%), the “Macular hole, number of appearance cases” value ([3]; two drops per time (38 cases)) was 0 (0.0) cases (%) and the “Punctate keratitis, number of appearance cases” value ([3]; two drops per time (38 cases)) was 4 (10.5) cases (%). The “change value of VFQ-25 subscale "vision-related social function"” value ([4]; one drop per time group) was −2.3, the “change value of VFQ-25 summary score” value ([4]; one drop per time group) was −1.1 and the “change value of VFQ-25 subscale "vision-related social function"” value ([4]; two drops per time group) was 6.6*^†. The “change value of VFQ-25 summary score” value ([4]; two drops per time group) was 2.69^†.
